# Tests used:
# [1] = test system: human cancer cell lines (HeLa, A549, H1299, MCF-7); assay: antiproliferative activity, cancer cell lines tested; type: cell-based; conditions: read-out: IC50 against the cancer cell lines tested
# tubulin = assay: inhibition of tubulin polymerization; type: biochemical
# [2] = test system: human non-small-cell lung carcinoma (A549); conditions: read-out: IC50 A549; values taken from the literature for comparison; cited from earlier work
# [3] = test system: human cervix carcinoma (HeLa); conditions: read-out: IC50 HeLa; values taken from the literature for comparison; cited from earlier work
# [4] = test system: breast adenocarcinoma (MCF-7); conditions: read-out: IC50 MCF-7; values taken from the literature for comparison; cited from earlier work
IC50 [1],Structure (SMILES),inhibitors of tubulin polymerization (result in words) (tubulin),IC50 [2],IC50 [3],IC50 [4]
> 45000 nM,COc1ccc(-c2nnnn2-c2cc(OC)c(OC)c(OC)c2O)cc1 [Compound 5b],inactive,–,–,–
> 45000 nM,COc1ccc(-c2nnnn2-c2cc(OC)c(OC)c(OC)c2O)c(O)c1 [Compound 5a],inactive,–,–,–
–,COc1ccc(-c2nnnn2-c2cc(OC)c(OC)c(OC)c2)cc1 [Compound 5f],–,222 ± 59 nM,2.6 nM,38.5 ± 5.8 nM
